Measurements reported in PubChem BioAssay AID435029 (Sanford-Burnham Center for Chemical Genomics, 2010).
Active and inactive are the calls of the source. The rule behind the calls is not given here.

tested on: HIV Env-mediated cell-cell fusion, luminescence reporter; assay: blockers of envelope-mediated cell fusion – luminescence reporter, SAR follow-up (AID 435029)

Row | Compound | IC50
1 | O=C(O)c1ccccc1N=Nc1c(O)[nH]c2ccc([N+](=O)[O-])cc12 | > 100 µM (inactive)
2 | COc1ccc(C(=O)Oc2ccc(C=NNc3ccc(Cl)c(C(=O)O)c3)cc2OC)cc1 | 13 µM
3 | Cc1c2c(=O)n(-c3nc4ccccc4s3)nc-2cc(O)n1Cc1ccccc1 | 6.58 µM
4 | CC(C)(C)c1cc(-c2csc(Nc3ccccc3)[n+]2Cc2ccc(C(=O)O)cc2)cc(C(C)(C)C)c1O | 3.5 µM
5 | N#C/C(=C\c1ccc(O)c([N+](=O)[O-])c1)c1nc2ccccc2s1 | 4.65 µM
6 | COc1cc(C=NNc2ccc(Cl)c(C(=O)O)c2)ccc1OC(=O)c1ccccc1F | 68 µM
7 | CCOC(=O)c1sc(N2C(=O)C(O)=C(C(=O)c3ccc(C)o3)C2c2cccc([N+](=O)[O-])c2)nc1C (stereo not given) | 5.1 µM
8 | O=C(O)c1cc(NN=Cc2ccc(-c3ccccc3)cc2)ccc1Cl | 10 µM
9 | O=C(N/N=C/c1c(O)n(C2CCCCC2)c(=S)[nH]c1=O)c1ccccc1O | 11.5 µM
10 | COc1cc(C=NNc2ccc(Cl)c(C(=O)O)c2)ccc1OC(=O)c1ccc(F)cc1 | 30 µM
